Laboratory results from publication PMC5339874, “Fluorene-9-bisphenol is anti-oestrogenic and may cause adverse pregnancy outcomes in mice” (Nature Communications, 2017).

Tests used:
rats and mice = system: rats and mice; set-up: method as in PMID 21438738, PMID 12075117, PMID 18445619; conditions: cited from earlier work
oestrogen receptor α = system: oestrogen receptor α; set-up: method as in PMID 22927406; conditions: in the presence of E2; cited from earlier work
[1] = system: intact female BALB/c mice; set-up: method as in PMID 9359486; conditions: 28 days of oral administration, intact female BALB/c mice ∼50 days old; cited from earlier work
female CD-1 mice [2] = assay: Exposure experiment through drinking water; assay type: in vivo; conditions: 10-day exposure via drinking water
Procedure: Mice with a maximal difference in body weight of 1 g were selected for the experiments and randomly assigned to either the treatment or control groups. […] The animals were fed ad libitum an oestrogen-free diet from Trophic Animal Feed High-tech Co., Ltd. (Nantong, China), and drinking water was provided ad libitum in glass bottles. Before the experiments, the mice were randomly assigned to five groups (n=8). Ultra-pure water was used as a control. FULV was dissolved in ultra-pure water to a concentration of 100 ng l^−1 and used as a positive control. […] Two plastic drinking bottles labelled ‘BPA-free', of different brands, were purchased and denoted Bottle A and Bottle B. The plastic bottles were filled with boiling ultra-pure water from a stainless steel electric water heater and allowed to cool down to room temperature before the animal experiment. The BHPF levels in the cooled boiled waters from Bottle A, Bottle B and the stainless steel electric water heater were determined by GC–MS. No BHPF was detected in the cooled boiled water from the stainless steel electric water heater. The cooled boiled waters from Bottle A and Bottle B were transferred to glass bottles during the experiment. The exposure experiment was performed for 10 days beginning on PND 24. After the period of exposure, the mice were weighed and killed in turns for each group, whereby in each turn only one mouse in a group was killed. Blood was collected by cardiac puncture soon after each animal was killed, and the uteri were removed, blotted and weighed by one experimenter to reduce the risk of bias in the data collection and immediately frozen in liquid nitrogen for gene expression analysis. The relative uterine weight was calculated to evaluate the anti-uterotrophic activity. […] The serum BHPF levels were analysed by GC–MS using the same method as that for human serum. The gene expressions of sprr2a and sprr2b in the uteri were determined by Q-RT-PCR.

female CD-1 mice [3] = assay: Improved anti-uterotrophic assay, daily oral gavage for 10 days beginning on PND 24; assay type: in vivo; conditions: daily oral gavage for 10 days
Procedure: The animals were fed ad libitum with a basic diet from the Laboratory Animal Center of the Academy of Military Medical Sciences (Beijing, China), and drinking water was provided ad libitum. […] The volume of vehicle or chemical solutions administered was adjusted daily based on body weight measured during the dosing period according to the volume-body weight ratio of 5 ml kg^−1 bw.

rats = system: rats; set-up: method as in PMID 8773425; conditions: oral, before implantation on day 2 of pregnancy; cited from earlier work
CD-1 mice = assay: Subchronic and reproductive toxicity tests; conditions: mouse, in vivo
Procedure: Immature CD-1 mice (20 days old) were obtained from Experimental Animal Tech Co. of Weitonglihua (Beijing, China) and acclimatized in an experimental environment with a temperature of 22 °C±2 °C, relative humidity between 40 and 60%, and artificial lighting in a 12 h/12 h light-dark cycle. The animals were fed ad libitum with a basic diet from the Laboratory Animal Center of the Academy of Military Medical Sciences (Beijing, China), and drinking water was provided ad libitum. […] The animals were housed five to a cage until the pairing date. The treatment via oral gavage of each mouse was performed once every 3 days beginning on PND 24. The chemicals were dissolved in peanut oil to the appropriate concentrations. The volume of vehicle or chemical solutions administered was adjusted daily based on body weight measured during the dosing period according to the volume-body weight ratio of 5 ml kg^−1 bw. On PND 60, 10 females of each group were weighed and killed by cervical dislocation. The uteri, ovaries, livers, kidneys and spleens were weighed and collected for histological analysis. At the age of PND 77, males and females were paired. Each morning, the females were examined for the presence of vaginal plugs. Gestational day 1 was defined as the day on which a vaginal plug was found. In cases where pairing was unsuccessful, females were re-mated with proven males of the same group, except that females in the 1.2 mg kg^−1 TAM group were re-mated with proven males of the control group. After a 7-day mating period, the males were weighed and killed, and organs were weighed and collected for further analysis. Cauda epididymal sperm was collected from each mouse and observed under a trinocular microscope (Olympus BX53) in physiological saline. A microscopic video was recorded and analysed for sperm quality evaluation. The treatment via oral gavage was continued for the females until day 19 of pregnancy. On post-partum days 0 and 4, the weights of the dams and pups were recorded and the pups were checked for abnormalities. On post-partum day 4, the dams were weighed and killed, and their organs were weighed and collected for further analysis. The ovaries and uteri were examined for the numbers of corpora lutea and implantation sites, respectively. Finally, the non-pregnant and nulliparous females were killed for histopathological analysis. For histological examination, organs and tissues were fixed in formalin fixation, embedded in paraffin, and sectioned serially at 5 μm. Slides were stained with hematoxylin and eosin (H&E), and observed under a light microscope (Olympus BX53).

## CC(C)(c1ccc(O)cc1)c1ccc(O)cc1 [BPA, bisphenol A]
Rats and mice
  reproductive/developmental NOAEL: 50 mg kg^−1 bw day^−1
  systemic no-observed-adverse-effect level (NOAEL): 5 mg kg^−1 bw day^−1

## Cc1cc(C(C)(C)c2ccc(O)c(C)c2)ccc1O [BPC, bisphenol C]
Oestrogen receptor α
  antagonistic activity: almost full antagonistic activity

## CC1=C(c2ccc(OC(=O)C(C)(C)C)cc2)[C@H](c2ccc(OCCN3CCCCC3)cc2)Oc2cc(OC(=O)C(C)(C)C)ccc21 [EM-800]
[1]
  effect on uterus: reduce uterine weights and cause atrophy of the endometrium

## C[C@]12CC[C@@H]3c4ccc(O)cc4C[C@@H](CCCCCCCCC[S+]([O-])CCCC(F)(F)C(F)(F)F)[C@H]3[C@@H]1CC[C@@H]2O (stereo partly shown) [FULV, fulvestrant]
Female CD-1 mice [2]; 100 ng l^−1 BHPF or FULV, Bottle A 124.35, Bottle B 23.81 ng l^−1 BHPF, P>0.05
  relative uterine weight, % that of the control: 77.89%±37.50
Female CD-1 mice [2]; no statistically significant difference (P>0.05)
  expression of sprr2a in the uteri (Q-RT-PCR): decreased
Female CD-1 mice [2]; vs control
  expression of sprr2b in the uteri (Q-RT-PCR): significantly lower
Female CD-1 mice [3]
  relative uterine weights: decreased in a dose-dependent manner

## CN(C)CCOc1ccc([C@H]2C[C@]3(C)[C@@H](O)CC[C@H]3[C@@H]3CCc4cc(O)ccc4[C@H]32)cc1 [RU39411]
rats
  reproductive effects, high doses: prevented pregnancy in all animals
  reproductive effects, low doses: reduced the litter sizes and weights and induced embryonic absorption in some animals

## CC/C(=C(\c1ccccc1)c1ccc(OCCN(C)C)cc1)c1ccccc1 [TAM, tamoxifen, reference compound]
rats
  reproductive effects, high doses: prevented pregnancy in all animals
  reproductive effects, low doses: reduced the litter sizes and weights and induced embryonic absorption in some animals
CD-1 mice
  analysis of ovary sections: retarded follicular development and reduced the numbers of corpora lutea
  histopathological examination of ovaries: haemorrhagic ovary cysts occurred
  histopathological examination of uteri: serious atrophic endometria
  sperm quality: No obvious adverse effects
